Measurements from US5703085A, “Xanthine derivatives” (Kyowa Hakko Kogyo Co., Ltd., priority 1994, dated 1997).
Read-outs that look alike come from different tables or passages of the source.

How the values were obtained:
[1] = target: T1, A2 Receptor (Rattus norvegicus, UniProt P30543); test: Adenosine A2 receptor binding test (inhibition of 3H-CGS 21680 binding); conditions: rat corpus striatum, 3H-CGS 21680 4.0 nM
T1 construct: from tissue; host or cells: rat corpus striatum (membrane suspension)
Method: Adenosine Receptor Antagonistic Activity (Adenosine A2 Receptor Binding Test)
The test was conducted according to the method of Bruns et al. [Mol. Pharmacol., 29, 331 (1986)] with slight modification.
Corpus striatum of a rat was suspended in ice-cooled 50 mM Tris (hydroxymethyl) aminomethane hydrochloride (Tris HCl) buffer (pH 7.7) by using Polytron homogenizer (manufactured by Kinematica Co.). The suspension was centrifuged (50,000×g, 10 minutes), and the precipitate was suspended again in the same amount of 50 mM Tris HCl buffer. The suspension was centrifuged under the same conditions, and the final precipitate was suspended in 50 mM Tris HCl buffer [containing 10 mM magnesium chloride and 0.02 unit/mg tissue of adenosine deaminase (manufactured by Sigma Co.)] to give a tissue concentration of 5 mg (wet weight)/ml.
To 1 ml of the tissue suspension thus prepared were added 50 μl of tritium labeled CGS 21680 {^3 H-2-[p-(2-carboxyethyl) phenethylamino]-5'-(N-ethylcarboxamide)-adenosine: 40 Ci/mmol; manufactured by New England Nuclear Co. [J. Pharmacol. Exp. Ther., 251, 888 (1989)]} (final concentration: 4.0 nM) and 50 μl of a test compound. The resulting mixture was allowed to stand at 25° C. for 120 minutes and then rapidly filtered by suction through a glass fiber filter (GF/C; manufactured by Whatman Co.). The filter was immediately washed three times with 5 ml each of ice-cooled 50 mM Tris HCl buffer, and transferred to a vial, and a scintillator (EX-H; manufactured by Wako Pure Chemical Industries, Ltd.) was added thereto. The radioactivity on the filter was determined with a liquid scintillation counter (manufactured by Packard Instrument Co.).
The inhibition rate of the test compound against the binding of A2 receptors (^3 H-CGS 21680 binding) was calculated by the following equation: [formula] [Notes]B: Amount of the binding in the presence of the test compound.
T: Amount of the total binding.
N: Amount of the nonspecific binding.
Amount of the total binding means the amount of radioactivity of ^3 H-CGS 21680 bound in the absence of the test compound. Amount of the nonspecific binding means the amount of radioactivity of ^3 H-CGS 21680 bound in the presence of 100 μM cyclopentyladenosine (CPA; manufactured by Sigma Co.). Amount of the binding in the presence of the test compound means the amount of radioactivity of ^3 H-CGS 21680 bound in the presence of the test compound at various levels of concentrations.

[2] = Effect on clonidine-induced aggressive behavior; assay type: in vivo, male ddY mice; conditions: po, clonidine 20 mg/kg ip; for Number of the Biting Attacks (mean ± S.E.M.), Test Compound-Treated Group: 30 min count
Method: Effect on Clonidine-Induced Aggressive Behavior
The enhancement effect of the test compounds on the aggressive behavior induced by intraperitoneal administration of clonidine [Eur. J. Pharmacol., 29, 374 (1968)] was investigated.
The experiment was performed using several groups of male ddY mice weighing 20 to 25 g (Japan SLC), each group consisting of two mice. A test compound was suspended in injectable distilled water (manufactured by Otsuka Pharmaceutical Co., Ltd.) after adding Tween 80. Clonidine hydrochloride (manufactured by Sigma Co.) was dissolved in physiological saline solution (manufactured by Otsuka Pharmaceutical Co., Ltd.). The suspension containing the test compound and the suspension containing no test compound (control) were orally administered to the separate groups of the mice (0.1 ml per 10 g of body weight). Sixty minutes after the oral administration of the test compound, clonidine hydrochloride (20 mg/kg) was intraperitoneally administered. The number of biting attacks during the 30 minutes immediately after the clonidine treatment was counted. The effect of the compounds was evaluated by comparing the number of biting attacks of the test compound-administered groups with that of control groups (significance test: Student' t-test).

[3] = Effect on haloperidol-induced catalepsy; assay type: in vivo, male ddY mice; conditions: 10 mg/kg po; for Total Score (catalepsy): 1 h after compound; for inhibition in vivo at 10 mg/kg: Mus musculus, 1 h, decrease in total score vs control group, read-out: Remission Rate (%)
Method: Effect on Haloperidol-Induced Catalepsy
Parkinson's disease is a clinical syndrome caused by degeneration and cell death of nigrostriatal dopaminergic neurons. Administration of haloperidol (dopamine D1 /D2 antagonist) induces catalepsy resulting from the blockade of postsynaptic dopamine D2 receptors.
The experiment was carried out using several groups of 5-week-old male ddY mice (weighing 22 to 24 g, Japan SLC), each group consisting of 5 or 10 mice. Haloperidol (manufactured by Janssen Pharmaceutica) was suspended in 0.3% CMC and imtraperitoneally administered to each mouse at a dose of 1.0 mg/kg. A test compound was suspended in injectable distilled water (manufactured by Otsuka Pharmaceutical Co., Ltd.) after adding Tween 80 [polyoxyethylene (20) sorbitan monooleate]. L-DOPA (manufactured by Kyowa Hakko Kogyo Co., Ltd.) and benserazide hydrochloride (manufactured by Kyowa Hakko Kogyo Co., Ltd.) were suspended in 0.3% CMC. One hour after the intraperitoneal administration of haloperidol, the suspension containing the test compound or the suspension containing no test compound [injectable distilled water (manufactured by Otsuka Pharmaceutical Co., Ltd.) containing Tween 80; control] were orally administered to the separate groups of the mice (0.1 ml per 10 g of body weight). One hour after the administration of the test compound, the forelimbs of each mouse and subsequently the hindlimbs of the same mouse were placed on a 4.5 cm-high, 1.0 cm-wide bar and catalepsy was estimated. All of the test compounds were orally administered at a dose of 10 mg/kg, and L-DOPA (100 mg/kg) and benserazide (25 mg/kg) were intraperitoneally administered together as a control. The catalepsy score and the standard of judgment are shown below. […]
Score Duration of the category
0: forelimbs less than 5 seconds
hindlimbs less than 5 seconds
1: forelimbs from 5 (inclusive)
to 10 (exclusive) seconds
2: forelimbs 10 seconds or more
3: (1) forelimbs from 5 (inclusive)
hindlimbs from 5 (inclusive)
or (2) forelimbs less than 5 seconds
hindlimbs 5 seconds or more
4: (1) forelimbs 10 seconds or more
or (2) forelimbs from 5 (inclusive)
hindlimbs 10 seconds or more
5: forelimbs 10 seconds or more
The effect of the compounds was evaluated by the total of the catalepsy scores of 5 or 10 mice in each group (25 or 50 points at the maximum). The groups wherein the total score was not more than 20 or 40 points were estimated to be effective. The number of the animals showing remission against catalepsy is the number of the mice for which the catalepsy score was not more than 4 points in 5 or 10 mice.

[4] = out of 10 mice (score not more than 4)

T1 sequence (P30543 whole entry): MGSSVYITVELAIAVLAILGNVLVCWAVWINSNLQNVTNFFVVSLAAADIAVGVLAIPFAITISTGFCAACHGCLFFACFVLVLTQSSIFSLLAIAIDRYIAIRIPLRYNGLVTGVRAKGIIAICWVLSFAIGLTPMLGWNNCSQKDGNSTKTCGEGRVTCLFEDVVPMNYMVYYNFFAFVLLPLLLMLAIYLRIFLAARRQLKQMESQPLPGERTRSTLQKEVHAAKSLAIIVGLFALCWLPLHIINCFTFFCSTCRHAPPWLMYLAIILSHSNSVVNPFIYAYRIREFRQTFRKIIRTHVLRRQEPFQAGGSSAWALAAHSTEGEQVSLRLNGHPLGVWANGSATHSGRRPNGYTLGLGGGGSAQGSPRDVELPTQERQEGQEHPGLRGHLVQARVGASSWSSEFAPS

Row | SMILES | A2 Receptor Inhibition Rate (%) ([1]; 10^-6 M) | A2 Receptor Inhibition Rate (%) ([1]; 10^-7 M) | further results
1 | CCn1c(=O)c2c(nc(/C=C/c3cccc(OC(C)=O)c3OC(C)=O)n2C)n(CC)c1=O [Compound 26, (E)-8-(2,3-Diacetoxystyryl)-1,3-diethyl-7-methylxanthine] | 101% | 75% | –
2 | C=CCn1c(=O)c2c(nc(/C=C/c3cc(OC)c(OC(C)=O)c(OC)c3)n2C)n(CC=C)c1=O [Compound 19, (E)-8-(4-Acetoxy-3,5-dimethoxystyryl)-1,3-diallyl-7-methylxanthine] | 96% | 91% | –
3 | CCCn1c(=O)c2c(nc(/C=C/c3ccc(OC)c(OC(C)=O)c3)n2C)n(CCC)c1=O [Compound 3, (E)-8-(3-Acetoxy-4-methoxystyryl)-7-methyl-1,3-dipropylxanthine] | 96% | 61% | –
4 | CCn1c(=O)c2c(nc(/C=C/c3ccc(OC)c(OC(C)=O)c3)n2C)n(CC)c1=O [Compound 16, (E)-8-(3-Acetoxy-4-methoxystyryl)-1,3-diethyl-7-methylxanthine] | 96% | 81% | –
5 | CCn1c(=O)c2c(nc(/C=C/c3cccc(OC(=O)c4ccccc4)c3)n2C)n(CC)c1=O [Compound 22, (E)-8-(3-Benzoyloxystyryl)-1,3-diethyl-7-methylxanthine] | 99% | 92% | –
6 | CCCn1c(=O)c2c(nc(/C=C/c3cc(OC(C)=O)cc(OC(C)=O)c3)n2C)n(CCC)c1=O [Compound 9, (E)-8-(3,5-Diacetoxystyryl)-7-methyl-1,3-dipropylxanthine] | 96% | 88% | –
7 | CCn1c(=O)c2c(nc(/C=C/c3cccc(OC)c3OC(C)=O)n2C)n(CC)c1=O [Compound 25, (E)-8-(2-Acetoxy-3-methoxystyryl)-1,3-diethyl-7-methylxanthine] | 101% | 95% | –
8 | CCCn1c(=O)c2c(nc(/C=C/c3ccc(OC(C)=O)c(OC(C)=O)c3)n2C)n(CCC)c1=O [Compound 1, (E)-8-(3,4-Diacetoxystyryl)-7-methyl-1,3-dipropylxanthine] | 93% | 89% | –
9 | CCn1c(=O)c2c(nc(/C=C/c3ccc(OC(C)=O)cc3)n2C)n(CC)c1=O [Compound 14, (E)-8-(4-Acetoxystyryl)-1,3-diethyl-7-methylxanthine] | 93% | 86% | Ratio of Attacks: Test Compd.-Treated Group/Control Group ([2]; 0.63 mg/kg): 4.1; Number of the Biting Attacks (mean ± S.E.M.), Test Compound-Treated Group ([2]; 0.63 mg/kg): 21.4 ± 7.4; Total Score (catalepsy) ([3]; 10 mice (max 50 points)): 11; Number of Animals Showing Remission [3, 4]: 10; inhibition in vivo at 10 mg/kg ([3]; 10 mice): 78%
10 | C=CCn1c(=O)c2c(nc(/C=C/c3ccc(OC(C)=O)c(OC)c3)n2C)n(CC=C)c1=O [Compound 15, (E)-8-(4-Acetoxy-3-methoxystyryl)-1,3-diallyl-7-methylxanthine] | 91% | 85% | –
11 | CCn1c(=O)c2c(nc(/C=C/c3ccc(OC(=O)C(C)(C)C)c(OC)c3)n2C)n(CC)c1=O [Compound 13, (E)-1,3-Diethyl-8-(3-methoxy-4-pivaloyloxystyryl)-7-methylxanthine] | – | – | Ratio of Attacks: Test Compd.-Treated Group/Control Group ([2]; 2.5 mg/kg): 10.1; Number of the Biting Attacks (mean ± S.E.M.), Test Compound-Treated Group ([2]; 2.5 mg/kg): 24.3 ± 6.6; Total Score (catalepsy) ([3]; 10 mice (max 50 points)): 14; Number of Animals Showing Remission [3, 4]: 9; inhibition in vivo at 10 mg/kg ([3]; 10 mice): 72%
12 | CCn1c(=O)c2c(nc(/C=C/c3cccc(OC(C)=O)c3)n2C)n(CC)c1=O [Compound 21, (E)-8-(3-Acetoxystyryl)-1,3-diethyl-7-methylxanthine] | 96% | 81% | –
13 | CCn1c(=O)c2c(nc(/C=C/c3cc(OC)c(OC(=O)c4ccccc4)c(OC)c3)n2C)n(CC)c1=O [Compound 18, (E)-8-(4-Benzoyloxy-3,5-dimethoxystyryl)-1,3-diethyl-7-methylxanthine] | 97% | 82% | Total Score (catalepsy) ([3]; 10 mice (max 50 points)): 30; Number of Animals Showing Remission [3, 4]: 7; inhibition in vivo at 10 mg/kg ([3]; 10 mice): 40%
14 | CCn1c(=O)c2c(nc(/C=C/c3cc(OC)c(OC(C)=O)c(OC)c3)n2C)n(CC)c1=O [Compound 17, (E)-8-(4-Acetoxy-3,5-dimethoxystyryl)-1,3-diethyl-7-methylxanthine] | 97% | 80% | Total Score (catalepsy) ([3]; 10 mice (max 50 points)): 30; Number of Animals Showing Remission [3, 4]: 7; inhibition in vivo at 10 mg/kg ([3]; 10 mice): 40%
15 | CCn1c(=O)c2c(nc(/C=C/c3cc(OC)ccc3OC(C)=O)n2C)n(CC)c1=O [Compound 23, (E)-8-(2-Acetoxy-5-methoxystyryl)-1,3-diethyl-7-methylxanthine] | 101% | 90% | –
16 | CCn1c(=O)c2c(nc(/C=C/c3ccc(OC(=O)c4ccccc4)c(OC)c3)n2C)n(CC)c1=O [Compound 7, (E)-8-(4-Benzoyloxy-3-methoxystyryl)-1,3-diethyl-7-methylxanthine] | 97% | 87% | Total Score (catalepsy) ([3]; 5 mice (max 25 points; control 25)): 14; Number of Animals Showing Remission ([3]; out of 5 mice (score not more than 4)): 3; inhibition in vivo at 10 mg/kg ([3]; 5 mice): 44%
